Measurements reported in publication PMC7865555, “Mechanistic Studies of the Antiallergic Activity of Phyllanthus amarus Schum. & Thonn. and Its Compounds” (Molecules, 2021).
Values joined by “and” are separate entries in the source; they are usually repeats but may differ in a detail not shown here. Equal entries are not always repeated. Structures can show the parent of a compound that is named as a salt.

Experiments:
[1] = test system: histamine release from RBL-2H3; assay: Inhibitory effect on histamine release from RBL-2H3 (ELISA); assay type: cell-based; conditions: Rattus norvegicus, mean ± SEM, n = 3, read-out: Inhibitory activity towards histamine release
Description: The bioassay was conducted as reported by Shahari, et al. and Abd Rani, et al.. In 24-well plates, 2 × 10^5 of RBL-2H3 cells were seeded in 400 µL per well. The cells were sensitized with 0.45 µg/mL anti-DNP IgE in 100 µL after two hours of incubation. The cells were incubated overnight until reaching 80% confluency. The cells were washed twice with 500 µL of enriched media before being constituted with 320 µL enriched media. After 10 min of incubation, the cells were treated with 40 µL of different concentration of test compounds and was incubated for another 10 min. The cells were treated with 20 µL of allergen, DNP-BSA (10 mg/mL), and further being incubated for another 30 min. The supernatant obtained was transferred into a microcentrifuge tube, and centrifuged for 20 min at 1000× g at 8 °C. The supernatant was transferred to the Histamine ELISA kit and the histamine quantification was conducted based on the ELISA manufacturer protocol given. The percentage of inhibition was measured using Equation (2). The control cell was assumed to have 100% histamine release with allergen added without any treatment while blank well corresponded to 0% cytokine release. Ketotifen fumarate was used as a positive control. (2) Percentage inhibition % = (1− OD test sample−OD blank/OD control−OD blank) × 100

[2] = target: T1, Histamine H1 (human) membrane preparation, in CHO-K1 cells (Homo sapiens, UniProt P35367); assay: Radioligand competition binding assay (3H-mepyramine); conditions: for Ki: read-out: Radioassay (Ki)
T1 construct: purchased Perkin Elmer (Waltham, MA, USA); host or cells: CHO-K1 cells (recombinant expression, membrane preparation)
Description: In determining the affinity of the ligands toward the receptor, competition radioligand binding was conducted. The assay was conducted by measuring the competition binding between a radioligand with a ligand. The concentration of the radioligand with the presence of the ligand and the receptor was determined by using a liquid scintillation counter. […] The Ki value which also known as the binding affinity of the ligand was determined using GraphPad Prism.
Pyrilamine (Mepyramine), [pyridinyl 5-3H], Membrane Target Systems: Histamine H1 (human) membrane preparation, in CHO-K1 cells, liquid scintillation cocktail (ULTIMA GOLD MV), pico pro vial, and glass fiber (GF) filter were obtained from Perkin Elmer (Waltham, MA, USA).
In preparation for bioassay analysis, 10 mg of test samples were dissolved in 1 mL of DMSO and were treated as the stock sample. […] The working test sample together with its stock sample were kept in 4 °C until further used.
The radioligand assay was conducted as reported by Strakhova and Esbenshade. […] The mixture was immediately added with 200 µL of histamine receptor membrane (5 µg protein/well). The mixture was incubated for an hour at room temperature while shaking on the shaker. After an hour incubation, the mixture was harvested on GF/B uni filter presoaked with 0.5% PEI for 3 min. The GF/B uni filter was rinsed a few times with a wash buffer before being dried for one and a half hours. Once the uni filter was dry, the punched filter was transferred to 4 mL pico pro vial and was soaked with 2 mL of liquid scintillation cocktail. The solution was vortexed for a few seconds before being quantified using the liquid scintillator. Ki value (nmol/L) was obtained by using Equation (3).

[3] = test system: beta-hexosaminidase release from RBL-2H3; assay: Inhibitory effect on beta-hexosaminidase release from RBL-2H3 (IgE/DNP-BSA); assay type: cell-based, rat
Description: The bioassay was conducted as reported by Abd Rani, et al.. In the concentration of 2 × 10^5 cells in 400 µL per well, RBL-2H3 cells were seeded and incubated for 2 h. After 2 h, the cells were sensitized with anti-DNP IgE at a concentration of 0.45 µg/mL in 100 µL per well. The cells were incubated overnight until 80% confluent. The cells were washed with 500 µL Siraganian buffer (119 mM of sodium chloride (NaCl), 5 mM of potassium chloride (KCl), 5.6 mM of glucose, 0.4 mM of magnesium chloride (MgCl2), 1 mM of calcium chloride (CaCl2), 25 mM of piperazine-N,N′-bis(2-ethanesulfonic acid) (PIPES), 40 mM of sodium hydroxide (NaOH), 0.1% BSA; pH 7.2) twice before were added with 160 µL of Siraganian buffer and incubated for 10 min. The cells were then treated with different concentrations of test samples in 20 µL. After 10 min of incubation, allergen, DNP-BSA at a concentration of 10 mg/mL were added to the cells. The cells were incubated for another 30 min. The supernatant (50 µL) was transferred into 96-well plates and was added immediately with 50 µL of the substrate ([…] p-nitrophenyl-N-acetyl-β-D-glucosaminide in 0.1 M citrate buffer, pH 4.5). The cells were further incubated for 1 h and the reaction was stopped using a 200 µL stop solution (0.1 M Na2CO3/NaHCO3, pH 10.0). The absorbance was measured using the microplate reader at 405 nm. The percentage of inhibition was measured using Equation (1). Control cell was assumed to have 100% beta-hexosaminidase release with allergen added without any treatment while the normal cell was assumed to have 0% beta-hexosaminidase release with cell without any allergen and treatment added to the well. The blank well consisted of the test sample. Ketotifen fumarate was used as a positive control. (1) Percentage inhibition % = (1− OD test sample−OD blank−OD normal/OD control−OD normal) × 100

[4] = test system: RBL-2H3 cell line; assay: Cell viability (MTT) assay on RBL-2H3 cells; assay type: cell-based, rat; conditions: for Toxicity towards the cell (in words): RBL-2H3, all concentrations tested; for Concentration safe on the cell: RBL-2H3, maintaining approximately 70% cell viability
Description: (§1) RBL-2H3 cells were obtained from the Japanese Collection of Research Bioresources (JCRB) cell bank with a cell number of JCRB0023. The cells were cultured in enriched media (MEM containing 10% FBS and 1% penicillin-streptomycin (10 000 U/mL)). Once the cells reaching passage 3 (P3) with 80% confluency and showing stable growth and morphology, the cells were used for the bioassays. Only cells from passage 3 (P3) to passage 5 (P5) were used for the bioassays’ studies.
(§2) The cell viability assay was conducted as reported by Shahari, et al.. RBL-2H3 cells were seeded in 96-well plates in 100 µL at the concentration of 5 × 10^5 /mL. […] The cells were incubated for 4 h. 10 µL of MTT (5 mg/mL in PBS buffer) was added to the mixture and was incubated for 4 h at 37 °C. Upon the appearance of purple formazan crystal, the media was removed and 100 µL of DMSO was added to the well plates to dissolve the crystal. After 10 min of shaking the well plates on a shaker, the absorbance was immediately measured using a microplate reader at 570 nm.

[5] = Cell viability (MTT) assay on RBL-2H3 cells; assay type: cell-based, rat; conditions: rat, RBL-2H3 cells; for viability at 4 h, 2.5 µg/mL: RBL-2H3, 2.5 µg/mL; for viability at 4 h, 5 µg/mL: RBL-2H3, 5 µg/mL; for viability at 4 h, 10 µg/mL: RBL-2H3, 10 µg/mL; for viability at 4 h, 25 µg/mL: RBL-2H3, 25 µg/mL; for viability at 4 h, 50 µg/mL: RBL-2H3, 50 µg/mL; for viability at 4 h, 100 µg/mL: RBL-2H3, 100 µg/mL
Description: as §1, §2

[6] = pH 7.4, 1 h incubation, 3H-mepyramine
[7] = Rattus norvegicus, mean ± SEM, n = 3, read-out: Inhibitory activity towards beta-hexosaminidase release

T1 sequence (P35367 whole entry): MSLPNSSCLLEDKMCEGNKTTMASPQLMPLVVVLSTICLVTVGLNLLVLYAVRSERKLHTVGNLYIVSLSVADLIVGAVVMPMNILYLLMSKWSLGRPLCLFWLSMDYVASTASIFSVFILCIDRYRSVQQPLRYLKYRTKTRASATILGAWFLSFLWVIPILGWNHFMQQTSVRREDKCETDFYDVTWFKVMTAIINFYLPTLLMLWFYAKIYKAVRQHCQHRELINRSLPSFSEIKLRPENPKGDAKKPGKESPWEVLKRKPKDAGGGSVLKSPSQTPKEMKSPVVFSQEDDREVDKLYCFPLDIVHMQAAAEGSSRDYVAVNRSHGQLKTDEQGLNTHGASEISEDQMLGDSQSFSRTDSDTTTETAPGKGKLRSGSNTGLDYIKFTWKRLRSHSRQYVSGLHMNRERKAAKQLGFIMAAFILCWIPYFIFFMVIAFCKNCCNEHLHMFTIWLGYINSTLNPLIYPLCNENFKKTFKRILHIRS

SMILES | inhibition at 5 µg/mL [1] [%] | inhibition at 10 µg/mL [1] [%] | inhibition at 25 µg/mL [1] [%] | Ki [2, 6] | Inhibition of beta-hexosaminidase release (in words) [3] | inhibition at 10 µg/mL [3, 7] [%] | inhibition at 25 µg/mL [3, 7] [%] | inhibition at 50 µg/mL [3, 7] [%] | Toxicity towards the cell (in words) [4] | viability at 4 h, 2.5 µg/mL [5] [%] | viability at 4 h, 5 µg/mL [5] [%] | viability at 4 h, 10 µg/mL [5] [%] | viability at 4 h, 25 µg/mL [5] [%] | viability at 4 h, 50 µg/mL [5] [%] | viability at 4 h, 100 µg/mL [5] [%] | inhibition at 2.5 µg/mL [1] [%] | inhibition at 2.5 µg/mL [3, 7] [%] | inhibition at 5 µg/mL [3, 7] [%] | Concentration safe on the cell [4] | also measured
COC[C@H](Cc1ccc(OC)c(OC)c1)[C@H](COC)Cc1cc(OC)c2c(c1)OCO2 [Niranthin (3), niranthin] | 34.7 ± 12.2 | 59 ± 22.2 | 41.2 ± 31.2 | 0.44 nM and 0.444 nM | inhibited the release of beta-hexosaminidase | 29.3 ± 5.81 | 31.3 ± 7.43 | 32.1 ± 7.27 | not toxic towards the cell | 104 ± 5.79 | 79.4 ± 8.96 | 96.5 ± 7.33 | 85.4 ± 11.6 | 96.63 ± 0.63 | 86.3 ± 12.4 |  |  |  |  | 
O=C(O[C@@H]1O[C@@H]2COC(=O)c3cc(O)c(O)c(O)c3-c3c(cc(O)c(O)c3O)C(=O)O[C@H]([C@H]1O)[C@@H]2O)c1cc(O)c(O)c(O)c1 [Corilagin (4), corilagin] |  |  |  |  |  | 2.43 ± 3.26 | 5.12 ± 2.09 | 6.68 ± 1.71 | not toxic towards the cell | 87.1 ± 4.31 | 81.1 ± 14.8 | 93.7 ± 15.4 | 103 ± 12.1 | 104 ± 7.35 | 101 ± 7.2 |  |  |  |  | Affinity towards the H1 receptor (in words) ([2]; competition radioligand assay): did not show any affinity towards the receptor; Radioassay (Ki) [2, 6]: Not converged
COC[C@@H]1Cc2cc(OC)c3c(c2[C@H](c2ccc(OC)c(OC)c2)[C@H]1COC)OCO3 [Hypophyllanthin (2), hypophyllanthin] | 71.2 ± 34.7 |  |  | 0.04 nM | inhibited the release of beta-hexosaminidase |  |  |  |  | 93 ± 9.69 | 91 ± 10.4 | 114 ± 8.89 | 62.46 ± 0.56 | 40.6 ± 4.17 | 28.1 ± 4.13 | 11.9 ± 64.3 | 32.3 ± 4.99 | 32.3 ± 4.51 | below 25 µg/mL | inhibition at 1.25 µg/mL ([1]; 1.25 µg/mL): 16.4 ± 46.6%; inhibition at 1.25 µg/mL ([3]; Rattus norvegicus, 1.25 µg/mL, mean ± SEM, n = 3, read-out: Inhibitory activity towards beta-hexosaminidase release): 23.9 ± 3.31%
CN1CCC(=C2c3ccccc3CC(=O)c3sccc32)CC1 [Ketotifen fumarate, reference compound] | 3.9 ± 6.8 | 44.7 ± 23 | 58.7 ± 23.2 |  |  | 22.2 ± 0.75 | 27.4 ± 0.58 |  |  | 91.9 ± 6.16 | 90.1 ± 3.89 | 86.8 ± 6.47 | 87.4 ± 1.17 | 83.8 ± 4.1 | 28.9 ± 4.87 |  |  | 17.7 ± 1.05 | below 50 µg/mL | 
COC[C@@H](Cc1ccc(OC)c(OC)c1)[C@@H](COC)Cc1ccc(OC)c(OC)c1 [Phyllanthin (1), phyllanthin] | 55.8 ± 19.3 | -11.6 ± 70.8 |  |  | inhibited the release of beta-hexosaminidase | 38.4 ± 8.72 |  |  |  | 92 ± 1.13 | 76.6 ± 3.77 | 84.3 ± 6.83 | 82.1 ± 4.03 | 74.2 ± 7.99 | 53.5 ± 0.65 | -3.05 ± 7.93 | 26.4 ± 3.18 | 37.9 ± 6.51 | below 50 µg/mL | 
